Patent publication US9808003B2, “Herbicidally active 2-(substituted-phenyl)-cyclopentane-1,3-dione compounds and derivatives thereof” (Syngenta Limited, priority 2013, dated 2017)

Assays:
Assay in all cases: Test 1A glasshouse assay, post-emergence herbicidal activity
Assay type in all cases: in vivo
[1] = tested on: Echinochloa crus-galli (ECHCG); conditions: Echinochloa crus-galli, 312 h, application rate 250 g/ha, 13 days after application, visual (100%=total damage; 0%=no damage), read-out: Post-emergence Herbicidal Activity (% Phytotoxicity) ECHCG
How it was run: (§1)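 Phytotoxicity was rated visually on a 0–100% scale 13 days post-spray. Pot-grown seedlings, 8 days old, received aqueous spray from an acetone/water 50:50 formulation with 0.5% Tween 20, then were kept in the glasshouse at 24/16° C day/night, 14 h light, 65% humidity.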

Lolium perenne (LOLPE) = conditions: Lolium perenne, 312 h, application rate 250 g/ha, 13 days after application, visual (100%=total damage; 0%=no damage), read-out: Post-emergence Herbicidal Activity (% Phytotoxicity) LOLPE
How it was run: as §1

Avena fatua (AVEFA) = conditions: Avena fatua, 312 h, application rate 250 g/ha, 13 days after application, visual (100%=total damage; 0%=no damage), read-out: Post-emergence Herbicidal Activity (% Phytotoxicity) AVEFA
How it was run: as §1

[2] = tested on: Alopecurus myosuroides (ALOMY); conditions: Alopecurus myosuroides, 312 h, application rate 250 g/ha, 13 days after application, visual (100%=total damage; 0%=no damage), read-out: Post-emergence Herbicidal Activity (% Phytotoxicity) ALOMY
How it was run: as §1

Row | Structure (SMILES) | pest or weed control at 250 g/ha [1] | pest or weed control at 250 g/ha (Lolium perenne (LOLPE)) | pest or weed control at 250 g/ha (Avena fatua (AVEFA)) | pest or weed control at 250 g/ha [2]
1 | Cc1cc(Oc2ncc(C(F)(F)F)cc2Cl)cc(C)c1C1C(=O)CC(CCNC(=O)c2ccccn2)C1=O (stereo not drawn) [Compound A126B, N-[2-[3-[4-[[3-chloro-5-(trifluoromethyl)-2-pyridyl]oxy]-2,6-dimethyl-phenyl]-2,4-dioxo-cyclopentyl]ethyl]pyridine-2-carboxamide] | 100% | 90% | 90% | 90%
2 | Cc1cc(-n2cc(Cl)cn2)cc(C)c1C1C(=O)CC(CCNC(=O)c2ccc(F)cn2)C1=O (stereo not drawn) [Compound A129] | 100% | 100% | 100% | 100%
3 | Cc1cccc(C(=O)NCCC2CC(=O)C(c3c(C)cc(-n4cc(Cl)cn4)cc3C)C2=O)n1 (stereo not drawn) [Compound A130] | 80% | 80% | 80% | 30%
4 | Cc1cc(-n2cc(Cl)cn2)cc(C)c1C1C(=O)CC(CCNC(=O)c2nc(Cl)ccc2Cl)C1=O (stereo not drawn) [Compound A131] | 100% | 100% | 100% | 100%
5 | Cc1cc(-n2cc(Cl)cn2)cc(C)c1C1C(=O)CC(CCNC(=O)c2cccc(Cl)n2)C1=O (stereo not drawn) [Compound A132] | 100% | 100% | 100% | 100%
6 | Cc1cc(-n2cc(Cl)cn2)cc(C)c1C1C(=O)CC(CCNC(=O)c2ncccc2F)C1=O (stereo not drawn) [Compound A133] | 100% | 100% | 90% | 100%
7 | Cc1cc(-n2cc(Cl)cn2)cc(C)c1C1C(=O)CC(CCNC(=O)c2cccc(Br)n2)C1=O (stereo not drawn) [Compound A134] | 100% | 100% | 100% | 100%
8 | Cc1cc(-n2cc(Cl)cn2)cc(C)c1C1C(=O)CC(CCNC(=O)c2cccc(F)n2)C1=O (stereo not drawn) [Compound A135] | 100% | 100% | 90% | 100%
9 | Cc1cc(-n2cc(Cl)cn2)cc(C)c1C1C(=O)CC(CCNC(=O)c2ccc(Br)cn2)C1=O (stereo not drawn) [Compound A136] | 100% | 100% | 90% | 100%
10 | Cc1cc(-n2cc(Cl)cn2)cc(C)c1C1C(=O)CC(CCNC(=O)c2ccc(C#N)cn2)C1=O (stereo not drawn) [Compound A137] | 100% | 80% | 70% | 80%
11 | Cc1cc(-n2cc(Cl)cn2)cc(C)c1C1C(=O)CC(CCNC(=O)c2cc(Cl)ccn2)C1=O (stereo not drawn) [Compound A138] | 100% | 100% | 90% | 100%
12 | Cc1cc(-n2cc(Cl)cn2)cc(C)c1C1C(=O)CC(CCNC(=O)c2cccc(C(F)(F)F)n2)C1=O (stereo not drawn) [Compound A139] | 90% | 100% | 90% | 90%
13 | Cc1cc(-n2cc(Cl)cn2)cc(C)c1C1C(=O)CC(CCNC(=O)c2nc(Cl)ccc2Br)C1=O (stereo not drawn) [Compound A140] | 100% | 100% | 100% | 90%
14 | C#CCOc1cc(C)c(C2C(=O)CC(CCNC(=O)c3ccccn3)C2=O)c(C)c1 (stereo not drawn) [Compound A141A] | 80% | 70% | 80% | 80%
15 | Cc1cc(-n2cc(Cl)cn2)cc(C)c1C1C(=O)CC(CCNC(=O)c2cc(Cl)cc(Cl)n2)C1=O (stereo not drawn) [Compound A141] | 100% | 70% | 10% | 60%
